What was measured:
SK-Mel-5 cells [1] = assay: Growth of cultured melanoma cells, hemocytometer counting; format: cell-based, human
Description: (§1) FIGS. 1A-1E. […] After 72 h treatment, cells were photographed. […] 2×10^6 SK-Mel-5 melanoma cells were subcutaneously inoculated into nude mice (n=5 mice per group). […] Tumor size was measured using an electronic digital caliper at intervals of 4 days. Tumor volume was calculated and statistically analyzed. Data shown are representative of two independent experiments. […] BMS-345541 levels in serum (μM, left axis) and tumor tissues (nmoles per gram tumor protein, right axes) were determined at the indicated time points.
(§2) A super-repressor form of human IκBα (S32, 36A) resistant to degradation and mutant IKKβ (K44M) was kindly provided by Javier Piedrafita (Sidney Kimmel Cancer Center, University of California-San Diego School of Medicine). Antibodies to IKKα (H-744), IKKβ (H-470), Bcl-2, Bax and AIF were purchased from Santa Cruz Biotechnology, Inc. (Santa Cruz, Calif.). Dihydroethidine, 3,3′dihexyloxacarbocyanine iodide and pan-caspase inhibitor (Z-VAD-FMK) were purchased from Molecular Probes (Eugene, Oreg.). N-acetyl-L-cysteine (NAC) and Tiron were from Sigma-Aldrich (St. Louis, Mo.). Normal human epidermal melanocytes (NHEM) were provided by the Skin Disease Research Center in Vanderbilt University School of Medicine. NHEM were cultured in 154 medium with 1× human melanocyte growth supplement (Cascade Biologicals, Inc.). The melanoma cell lines, Sk Mel5, A375 and Hs294T, originally established from human metastatic melanoma, were purchased from American Type Culture Collection and cultured in DMEM: Ham's F-12 medium containing 10% FBS, 2 mM of L-glutamine, 100 μM of MEM Non-Essential Amino Acids (Life Technologies, Inc.), and 1 mM of sodium pyruvate (Sigma Chemical Co.).
Aberrant activation of NF-κB has been associated with carcinogenesis, and constitutively high IKK activity has been detected in many tumor types, including human melanoma (Yang & Richmond, 2001; Liptay et al., 2003; Mathas et al., 2003). IKK is a major regulator of the NF-κB pathway and therefore represents an attractive therapeutic target in advanced cancers. […] After three days of culture, the cell numbers were determined by hemocytometer counting (Table 1).

A375 cells = assay: as above; format: cell-based, human
From the text: as §2, with “[…])” for “(K44M)”, “Piedrafita (Sidney Kimmel” left out, “Dihydroethidine, 3,3′dihexyloxacarbocyanine iodide and pan-caspase inhibitor (Z-VAD-FMK) were purchased from Molecular Probes (Eugene, Oreg.).” left out, “Co.). Aberrant activation of NF-κB has been associated with carcinogenesis, and constitutively high IKK activity has been detected in many tumor types, including human melanoma (Yang & Richmond, 2001; […] et al., 2003; […] et al., 2003). IKK is a major regulator of the NF-κB pathway and therefore represents an attractive therapeutic target in advanced cancers. […] After three days of culture, the cell numbers were determined by hemocytometer counting (Table 1).” for “Co.).”

Hs 294T cells = assay: as above; format: cell-based, human
From the text: as §2, with “[…])” for “(K44M)”, “Piedrafita (Sidney Kimmel” left out, “Dihydroethidine, 3,3′dihexyloxacarbocyanine iodide and pan-caspase inhibitor (Z-VAD-FMK) were purchased from Molecular Probes (Eugene, Oreg.).” left out, “Co.). Aberrant activation of NF-κB has been associated with carcinogenesis, and constitutively high IKK activity has been detected in many tumor types, including human melanoma (Yang & Richmond, 2001; […] et al., 2003; […] et al., 2003). IKK is a major regulator of the NF-κB pathway and therefore represents an attractive therapeutic target in advanced cancers. […] After three days of culture, the cell numbers were determined by hemocytometer counting (Table 1).” for “Co.).”

[2] = BMS-345541 levels in mouse serum and tumor tissues after oral dose; format: in vivo, mice
Description: as §1
Tumor tissue levels of drug were 3.2±0.97, 12.5±3.28 and 28.1±2.65 nmoles per gram tissue protein for the three treatment groups, respectively.

CXCL1 = CXCL1 ELISA of melanoma cell culture medium; format: cell-based, human; details: SK-Mel-5 supernatant, 14 h
Description: FIGS. 2A-2D. […] SK-Mel-5 cells were plated in 6-well plates (1.5×10^5 cells per well) and then cotransfected with 1 μg of HIV long terminal repeat NF-κB-luciferase vector and β-galactosidase vector DNA using Lipofectamine Plus reagent. Twenty-four hours after transfection, cells in duplicate plates were treated with 0, 0.1, 1 and 10 μM of BMS-345541in DMSO and incubated for an additional 36 h. Cell extract was prepared and luciferase activity was detected. Luciferase activity was normalized to β-galactosidase activity. […] ATP. The [γ-^32P]-labeled IκBα protein was visualized by autoradiography. […] The supernatants from B were cleared by centrifugation, or (FIG. 2D) sera were collected from mice, and subjected to ELISA assay for CXCL1 according to the manufacture's protocol. Data shown are from a representative data set from two experiments performed in duplicate (total n=4 for each point). For ELISA; the mean value is representative of serum samples from five mice.
To quantify the CXCL1 expression levels in vivo and in vitro, serum was collected at the end of the experiments from mice bearing SK-Mel-5 melanoma tumors or from the cleared supernatants of melanoma cell culture medium. Briefly, 1.5×10^5 of SK-Mel-5 cells/well were seeded in six-well plates in duplicate in DMEM/F12 medium containing 10% FBS.

SK-Mel-5 cells [3] = assay: Electron microscopy of cultured melanoma cells; format: cell-based, human; details: 10 μM, 24 h
SK-Mel-5 cells [4] = assay: Western blot / confocal analysis of apoptotic proteins in subcellular fractions; format: cell-based, human; details: 10 μM
Description: Subcellular mitochondria and cytoplasm were prepared and subjected to Western blot analysis for Bcl-2 and Bax. […] After exposure, mitochondria were isolated and incubated with 80 μM 3,3′dihexyloxacarbocyanine iodide (DiOC6) at 37° C. for 15 min. Δψm was determined by FACS analysis using 484/530 nm filters within 10 min while gating the forward and sideward scatters on intact mitochondria (FIG. 5C). […] Subcellular extracts were prepared and subjected to Western blot analysis for cytochrome-C and AIF. […] The supernatant was assessed for cytochrome-c release. 200 μM Ca^2+ was used as a positive control.
The cellular caspase-3 activity in samples was detected as described in Materials and Methods. […] Cells were fixed and stained with propidium iodide staining as described in FIG. 4H. The percentage of cell death was measured with flow cytometry. […] Cytosol was extracted and subjected to Western blot analysis for AIF, cytochrome-c (cyto-C) and actin. Actin was used as a loading control protein. […] Ref-1 was used as a nuclear marker protein. All data shown here were from three independent experiments. […] SK-Mel-5 cells were exposed to 10 μM BMS and/or pan-caspase inhibitor (Z-VAD-fmk, 50 μM).
Proteins from cell extracts were separated by 12% SDS-PAGE and electrophoretically transferred to nitrocellulose membranes. Nonspecific binding was blocked with 5% milk in TBST buffer (4 mM Tris base, 100 mM NaCl, pH 7.5, 0.05% Tween), incubated with the indicated primary antibodies with a dilution of 1:1000 at room temperature for 2 h or 4° C. for overnight and then with horseradish peroxidase-conjugated secondary antibody for 1 h. Blots were visualized by enhanced chemiluminescence assay.
The Mitochondria Isolation Kit (Pierce, Rockford, Ill.) was used for isolation of mitochondria from cultured melanoma cells according to the manufacture's instruction for the Reagent-based method. Briefly, cells (2×10^7) were collected, washed with PBS buffer and resuspended in 0.8 ml of Reagent A on ice for 2 min. 10 μl of Reagent B was added and samples were kept on ice, with vortexing very minute for 5 min. After addition of 0.8 ml of Reagent C, the mixture was centrifuged at 700×g for 10 min to remove the cell debris and nuclei. The supernatant was then centrifuged at 3,000×g for 15 min. The pellet (mitochondria) was washed with Reagent C. The purity of mitochondria was determined by Western blotting with β-actin, where β-actin negative preparation were fully to be pure. The supernatant (cytosolic fraction) was further cleared by centrifugation at 12,000×g for 15 min.
Cells were incubated with the anti-AIF polyclonal antibody for 2 h. Cells were washed twice and incubated with the secondary antibody conjugated with FITC for 1 h.

**Q.** Which cell morphology (SK-Mel-5 cells [1]; 10 μM or 100 μM, 14 h (FIG. 1A)) does the source give for Cc1ccc2nc(NCCN)c3ncc(C)n3c2c1.Cl [BMS-345541, 4(2′-aminoethyl)amino-1,8-dimethylimidazo(1,2-a)quinoxaline] here?
**A.** Its cell morphology is “appeared morphologically apoptotic”.

**Q.** What about the “cell number after three days of culture” value (SK-Mel-5 cells [1]; Sk-Mel-5, 0.1 μM) of the same compound?
**A.** Its value is 3.7 ± 0.55 10^5.

**Q.** And the “cell number after three days of culture” value (SK-Mel-5 cells [1]; Sk-Mel-5, 1.0 μM)?
**A.** Its value is 2.7 ± 0.31 10^5.

**Q.** What about the “cell number after three days of culture” value (SK-Mel-5 cells [1]; Sk-Mel-5, 10 μM) of the same compound?
**A.** The value was 0.028 ± 0.02 10^5.

**Q.** And the “cell number after three days of culture” value (SK-Mel-5 cells [1]; Sk-Mel-5, 100 μM)?
**A.** Its value is 0 10^5.

**Q.** And the “cell number after three days of culture” value (A375 cells; A375, 0.1 μM)?
**A.** Its value is 3.2 ± 0.38 10^5.

**Q.** And the “cell number after three days of culture” value (A375 cells; A375, 1.0 μM)?
**A.** Its value is 1.6 ± 0.38 10^5.

**Q.** What about the “cell number after three days of culture” value (A375 cells; A375, 10 μM) of the same compound?
**A.** The value was 0.020 ± 0.01 10^5.

**Q.** And the “cell number after three days of culture” value (A375 cells; A375, 100 μM)?
**A.** Its value is 0 10^5.

**Q.** And the “cell number after three days of culture” value (Hs 294T cells; 0.1 μM)?
**A.** The value was 1.9 ± 0.15 10^5.

**Q.** What about the “cell number after three days of culture” value (Hs 294T cells; 1.0 μM) of the same compound?
**A.** The value was 2.2 ± 0.42 10^5.

**Q.** What about the “cell number after three days of culture” value (Hs 294T cells; 10 μM) of the same compound?
**A.** The value was 0.013 ± 0.01 10^5.

**Q.** And the “cell number after three days of culture” value (Hs 294T cells; 100 μM)?
**A.** Its value is 0 10^5.

**Q.** What about the “concentration in tumor tissues” value ([2]; 75 mg/kg oral, 1.5 h (FIG. 1E)) of the same compound?
**A.** Its value is 19±2.5 nmoles/g tissue protein.

**Q.** What about the “concentration in tumor tissues” value ([2]; 75 mg/kg oral, 3 h (FIG. 1E)) of the same compound?
**A.** The value was 44±1.5 nmoles/g tissue protein.

**Q.** And the “concentration in tumor tissues” value ([2]; 75 mg/kg oral, 5 h (FIG. 1E))?
**A.** Its value is 30±1.0 nmoles/g tissue protein.

**Q.** And the “concentration in tumor tissues” value ([2]; 75 mg/kg oral, 8 h (FIG. 1E))?
**A.** The value was 29±2.5 nmoles/g tissue protein.

**Q.** What about the “concentration in tumor tissues” value ([2]; 75 mg/kg oral, 24 h (FIG. 1E)) of the same compound?
**A.** Its value is 11±0.83 nmoles/g tissue protein.

**Q.** And the tumor tissue level ([2]; 8 h after oral dose of 10 mg/kg)?
**A.** The tumor tissue level was 3.2±0.97 nmoles per gram tissue protein.

**Q.** And the tumor tissue level ([2]; 8 h after oral dose of 25 mg/kg)?
**A.** The tumor tissue level was 12.5±3.28 nmoles per gram tissue protein.

**Q.** And the tumor tissue level ([2]; 8 h after oral dose of 75 mg/kg (dose series))?
**A.** Its tumor tissue level is 28.1±2.65 nmoles per gram tissue protein.

**Q.** What about the concentration at 1.5 h ([2]; nude, mouse, serum, 75 mg/kg oral, 1.5 h (FIG. 1E)) of the same compound?
**A.** The concentration at 1.5 h was 6.6 ± 0.31 µM.

**Q.** What about the concentration at 3 h ([2]; nude, mouse, serum, 75 mg/kg oral, 3 h (FIG. 1E)) of the same compound?
**A.** The concentration at 3 h was 18 ± 1.3 µM.

**Q.** And the concentration at 5 h ([2]; nude, mouse, serum, 75 mg/kg oral, 5 h (FIG. 1E))?
**A.** Its concentration at 5 h is 5.2 ± 0.19 µM.

**Q.** What about the concentration at 8 h ([2]; nude, mouse, serum, 75 mg/kg oral, 8 h (FIG. 1E)) of the same compound?
**A.** Its concentration at 8 h is 4.1 ± 0.22 µM.

**Q.** What about the concentration at 24 h ([2]; nude, mouse, serum, 75 mg/kg oral, 24 h (FIG. 1E)) of the same compound?
**A.** Its concentration at 24 h is 1.1 ± 0.065 µM.

**Q.** What about the concentration at 8 h ([2]; nude, mouse, serum, 8 h after oral dose of 10 mg/kg) of the same compound?
**A.** Its concentration at 8 h is 0.9 ± 0.25 µM.

**Q.** What about the concentration at 8 h ([2]; nude, mouse, serum, 8 h after oral dose of 25 mg/kg) of the same compound?
**A.** The concentration at 8 h was 3.1 ± 1.1 µM.

**Q.** And the concentration at 8 h ([2]; nude, mouse, serum, 8 h after oral dose of 75 mg/kg (dose series))?
**A.** The concentration at 8 h was 8.2 ± 1.1 µM.

**Q.** And the “CXCL1 expression in melanoma cell cultures” value (CXCL1)?
**A.** Its value is “suppressed in a concentration-dependent manner”.

**Q.** What about the “morphology under electron microscopy” value (SK-Mel-5 cells [3]) of the same compound?
**A.** The value was “typical feature of apoptosis”.

**Q.** And the “time of cytochrome-c release into cytosol” value (SK-Mel-5 cells [4])?
**A.** Its value is 14 h.

**Q.** And the “time of initiation of AIF release into cytosol” value (SK-Mel-5 cells [4])?
**A.** The value was 4 h.

**Q.** And the “release of pro-apoptotic molecules from mitochondria” value (SK-Mel-5 cells [4]; 24 h, Western blot)?
**A.** Its value is “mitochondrial cytochrome-c release into the cytoplasm and AIF nuclear translocation”.
